Test results published in patent publication US7138361B2, “Herbicidal heterocycles” (E. I. du Pont de Nemours and Company, priority 2000, dated 2006).

Columns and labels:
Experiment in all cases: Test C preemergence
Assay type in all cases: in vivo
[1] = tested on: Sunflower; conditions: Rate 125 g/ha, scale 0 to 100, 0 no effect, 100 complete control
[2] = tested on: crabgrass (Digitaria sanguinalis)
Outline: (§1)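 Preemergence: seeds sown then treated. Postemergence: plants 2–18 cm, 1- to 4-leaf. Both with surfactant-containing solvent formulation; visual injury scored 0–100 after 12–14 d.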

[3] = tested on: johnsongrass (Sorghum halepense)
Outline: as §1

[4] = tested on: morningglory (Ipomoea hederacea)
Outline: as §1

[5] = tested on: giant foxtail (Setaria faberii)
Outline: as §1

[6] = tested on: yellow nutsedge (Cyperus esculentus)
Outline: as §1

[7] = tested on: goosegrass (Eleusine indica)
Outline: as §1

[8] = tested on: cocklebur (Xanthium strumarium)
Outline: as §1

[9] = tested on: kochia (Kochia scoparia)
Outline: as §1

[10] = tested on: velvetleaf (Abutilon theophrasti)
Outline: as §1

[11] = tested on: lambsquarters (Chenopodium album)
Outline: as §1

[12] = tested on: bermudagrass (Cynodon dactylon)
Outline: as §1

[13] = tested on: common ragweed (Ambrosia elatior)
Outline: as §1

[14] = tested on: woolly cupgrass (Eriochloa villosa)
Outline: as §1

[15] = tested on: corn (Zea mays)
Outline: as §1

[16] = tested on: pigweed (Amaranthus retroflexus)
Outline: as §1

[17] = tested on: Nightshade
[18] = tested on: Sunflower
[19] = tested on: Surinam grass (Brachiaria decumbens)
Outline: as §1

[20] = tested on: soybean (Glycine max)
Outline: as §1

[21] = Preemergence, Rate 500 g/ha, scale 0 to 100
[22] = Rate 62 g/ha, scale 0 to 100, 0 no effect, 100 complete control
[23] = preemergence, Rate 31 g/ha, scale 0 to 100
[24] = preemergence, Rate 250 g/ha, visual evaluation after 12 to 14 days
[25] = preemergence, Rate 125 g/ha, scale 0 to 100, 0 no effect, 100 complete control

CC(C)(C)c1ccn(C2CCN(c3cccc(OC(F)(F)F)c3)C2=O)n1 (centres unmarked) [Compound 49]
Plant response rating, Sunflower [1]: 20 | Plant response rating, Crabgrass [2, 21]: 100 | Plant response rating, Crabgrass [2, 22]: 100 | Plant response rating, Crabgrass [2, 23]: 0 | Plant response rating (0 to 100), Crabgrass [2, 24]: 100 | Plant response rating, Crabgrass [2, 25]: 100 | Plant response rating, Johnsongrass [3, 21]: 90 | Plant response rating, Johnsongrass [3, 22]: 0 | Plant response rating, Johnsongrass [3, 23]: 0 | Plant response rating (0 to 100), Johnsongrass [3, 24]: 50 | Plant response rating, Johnsongrass [3, 25]: 0 | Plant response rating, Morningglory [4, 21]: 30 | Plant response rating, Morningglory [4, 22]: 0 | Plant response rating, Morningglory [4, 23]: 0 | Plant response rating (0 to 100), Morningglory [4, 24]: 0 | Plant response rating, Morningglory [4, 25]: 0 | Plant response rating, Foxtail, Giant [5, 21]: 100 | Plant response rating, Foxtail, Giant [5, 22]: 0 | Plant response rating, Foxtail, Giant [5, 23]: 0 | Plant response rating (0 to 100), Foxtail, Giant [5, 24]: 100 | Plant response rating, Foxtail, Giant [5, 25]: 100 | Plant response rating, Nutsedge [6, 21]: 0 | Plant response rating, Nutsedge [6, 22]: 40 | Plant response rating, Nutsedge [6, 23]: 30 | Plant response rating (0 to 100), Nutsedge [6, 24]: 0 | Plant response rating, Nutsedge [6, 25]: 50 | Plant response rating, Goosegrass [7, 21]: 100 | Plant response rating, Goosegrass [7, 22]: 100 | Plant response rating, Goosegrass [7, 23]: 0 | Plant response rating (0 to 100), Goosegrass [7, 24]: 100 | Plant response rating, Goosegrass [7, 25]: 100 | Plant response rating, Cocklebur [8, 21]: 20 | Plant response rating, Cocklebur [8, 22]: 0 | Plant response rating, Cocklebur [8, 23]: 0 | Plant response rating (0 to 100), Cocklebur [8, 24]: 0 | Plant response rating, Cocklebur [8, 25]: 0 | Plant response rating, Kochia [9, 21]: 100 | Plant response rating, Kochia [9, 22]: 90 | Plant response rating, Kochia [9, 23]: 50 | Plant response rating (0 to 100), Kochia [9, 24]: 100 | Plant response rating, Kochia [9, 25]: 90 | Plant response rating, Velvetleaf [10, 21]: 40 | Plant response rating, Velvetleaf [10, 22]: 0 | Plant response rating, Velvetleaf [10, 23]: 0 | Plant response rating (0 to 100), Velvetleaf [10, 24]: 30 | Plant response rating, Velvetleaf [10, 25]: 0 | Plant response rating, Lambsquarters [11, 21]: 100 | Plant response rating, Lambsquarters [11, 22]: 100 | Plant response rating, Lambsquarters [11, 23]: 100 | Plant response rating (0 to 100), Lambsquarters [11, 24]: 100 | Plant response rating, Lambsquarters [11, 25]: 100 | Plant response rating, Bermudagrass [12, 21]: 100 | Plant response rating, Bermudagrass [12, 22]: 100 | Plant response rating, Bermudagrass [12, 23]: 0 | Plant response rating (0 to 100 where 0 is no effect and 100 is complete control), Bermudagrass [12, 24]: 100 | Plant response rating, Bermudagrass [12, 25]: 100 | Plant response rating, Ragweed, Common [13, 21]: 90 | Plant response rating, Ragweed, Common [13, 22]: 0 | Plant response rating, Ragweed, Common [13, 23]: 0 | Plant response rating (0 to 100), Ragweed, Common [13, 24]: 30 | Plant response rating, Ragweed, Common [13, 25]: 30 | Plant response rating, Cupgrass, Woolly [14, 21]: 100 | Plant response rating, Cupgrass, Woolly [14, 22]: 30 | Plant response rating, Cupgrass, Woolly [14, 23]: 20 | Plant response rating (0 to 100), Cupgrass, Woolly [14, 24]: 70 | Plant response rating, Cupgrass, Woolly [14, 25]: 60 | Plant response rating, Corn [15, 21]: 0 | Plant response rating, Corn [15, 22]: 0 | Plant response rating, Corn [15, 23]: 0 | Plant response rating (0 to 100), Corn [15, 24]: 0 | Plant response rating, Corn [15, 25]: 0 | Plant response rating, Pigweed [16, 21]: 100 | Plant response rating, Pigweed [16, 22]: 100 | Plant response rating, Pigweed [16, 23]: 70 | Plant response rating (0 to 100), Pigweed [16, 24]: 100 | Plant response rating, Pigweed [16, 25]: 100 | Plant response rating, Nightshade ([17]; Rate 31 g/ha, scale 0 to 100): 0 | Plant response rating, Nightshade [17, 22]: 0 | Plant response rating, Nightshade ([17]; Rate 125 g/ha, scale 0 to 100, 0 no effect, 100 complete control): 30 | Plant response rating, Nightshade ([17]; Rate 500 g/ha, scale 0 to 100): 90 | Plant response rating, Sunflower [18, 22]: 20 | Plant response rating, Sunflower ([18]; Rate 500 g/ha, scale 0 to 100): 80 | Plant response rating, Surinam grass [19, 21]: 80 | Plant response rating, Surinam grass [19, 22]: 0 | Plant response rating, Surinam grass [19, 23]: 0 | Plant response rating (0 to 100), Surinam grass [19, 24]: 70 | Plant response rating, Surinam grass [19, 25]: 0 | Plant response rating, Soybean [20, 21]: 80 | Plant response rating, Soybean [20, 22]: 0 | Plant response rating, Soybean [20, 23]: 0 | Plant response rating (0 to 100), Soybean [20, 24]: 50 | Plant response rating, Soybean [20, 25]: 40
